The record followed here is patent US10717716B2, “1,3,4-oxadiazole derivative compounds as histone deacetylase 6 inhibitor, and the pharmaceutical composition comprising the same” (Chong Kun Dang Pharmaceutical Corp., priority 2015, dated 2020).

The test has as its target T1, human recombinant HDAC6 (Homo sapiens, UniProt Q9UBN7).
T1 construct: purchased Calbiochem 382180
T1 sequence (Q9UBN7 1-1215): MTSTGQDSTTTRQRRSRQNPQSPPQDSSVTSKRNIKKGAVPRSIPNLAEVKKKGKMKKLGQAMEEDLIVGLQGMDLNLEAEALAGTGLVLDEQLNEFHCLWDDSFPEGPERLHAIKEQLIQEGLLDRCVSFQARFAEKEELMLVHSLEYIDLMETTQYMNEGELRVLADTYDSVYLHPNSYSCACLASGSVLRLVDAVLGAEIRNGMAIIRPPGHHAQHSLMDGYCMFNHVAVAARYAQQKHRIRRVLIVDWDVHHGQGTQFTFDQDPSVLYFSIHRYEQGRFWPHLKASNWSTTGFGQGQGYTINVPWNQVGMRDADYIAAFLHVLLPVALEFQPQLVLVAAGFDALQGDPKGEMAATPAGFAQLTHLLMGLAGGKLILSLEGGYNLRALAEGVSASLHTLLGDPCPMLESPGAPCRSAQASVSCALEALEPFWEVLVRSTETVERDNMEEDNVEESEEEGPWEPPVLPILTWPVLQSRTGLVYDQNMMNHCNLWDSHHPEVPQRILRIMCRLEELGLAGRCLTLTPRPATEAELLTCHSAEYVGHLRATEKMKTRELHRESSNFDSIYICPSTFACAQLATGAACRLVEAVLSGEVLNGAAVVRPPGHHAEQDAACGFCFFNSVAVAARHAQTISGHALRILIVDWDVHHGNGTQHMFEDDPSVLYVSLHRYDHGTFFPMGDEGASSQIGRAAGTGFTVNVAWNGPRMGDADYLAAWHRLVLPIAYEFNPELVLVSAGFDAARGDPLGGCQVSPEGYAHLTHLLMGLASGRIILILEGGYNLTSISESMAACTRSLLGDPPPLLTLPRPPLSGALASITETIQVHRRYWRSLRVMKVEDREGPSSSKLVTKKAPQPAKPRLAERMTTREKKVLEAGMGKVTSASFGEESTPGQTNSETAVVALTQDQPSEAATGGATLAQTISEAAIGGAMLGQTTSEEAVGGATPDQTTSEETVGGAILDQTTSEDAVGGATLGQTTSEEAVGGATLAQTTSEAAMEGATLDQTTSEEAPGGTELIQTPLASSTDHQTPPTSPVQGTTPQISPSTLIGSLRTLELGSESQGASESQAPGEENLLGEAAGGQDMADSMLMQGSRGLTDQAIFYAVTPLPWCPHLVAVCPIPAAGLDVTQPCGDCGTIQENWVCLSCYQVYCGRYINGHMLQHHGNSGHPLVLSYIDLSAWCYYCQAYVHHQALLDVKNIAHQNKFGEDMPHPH
The test is described as follows: HDAC6 enzyme activity inhibition assay (HDAC Fluorimetric Drug Discovery Kit). It counts as biochemical. The settings on record: for HDAC6 selectivity (fold): HDAC6 over HDAC1; for IC50: human recombinant HDAC6, same protocol as HDAC1, read-out: HDAC6. In a few lines: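 Fluorimetric deacetylase assay: 5-fold serial compound dilutions, 0.3 μg recombinant human enzyme (HDAC1 or HDAC6, same protocol), 10 μM Fluor de Lys-SIRT1 substrate, 60 min at 30 °C. Signal developed 30 min, measured at 360/460 nm; IC50 values derived.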

As for `COc1cccc(N(Cc2ccc(-c3nnc(C(F)F)o3)cn2)C(=O)N2CCN(C3COC3)CC2)c1` [Compound 21950, N-((5-(5-(Difluoromethyl)-1,3,4-oxadiazol-2-yl)pyridin-2-yl)methyl)-N-(3-methoxyphenyl)-4-(oxetan-3-yl)piperazine-1-carboxamide], the “HDAC6 selectivity (fold)” value stood at 64 fold and the IC50 amounted to 157 nM.
With `COc1ccc(N(Cc2ccc(-c3nnc(C(F)F)o3)cc2)C(=O)N2CCN(C3COC3)CC2)cc1` [Compound 21951, N-(4-(5-(Difluoromethyl)-1,3,4-oxadiazol-2-yl)benzyl)-N-(4-methoxyphenyl)-4-(oxetan-3-yl)piperazine-1-carboxamide], the “HDAC6 selectivity (fold)” value stood at 26 fold and the IC50 is 391 nM.
With `COc1ccc(N(Cc2ccc(-c3nnc(C(F)F)o3)cc2F)C(=O)N2CCN(C3COC3)CC2)cc1` [Compound 21952, N-(4-(5-(Difluoromethyl)-1,3,4-oxadiazol-2-yl)-2-fluorobenzyl)-N-(4-methoxyphenyl)-4-(oxetan-3-yl)piperazine-1-carboxamide], the “HDAC6 selectivity (fold)” value is listed as 58 fold and the IC50 was found to be 172 nM.
Regarding `COc1ccc(N(Cc2ccc(-c3nnc(C(F)F)o3)cn2)C(=O)N2CCN(C3COC3)CC2)cc1` [Compound 21953, N-((5-(5-(Difluoromethyl)-1,3,4-oxadiazol-2-yl)pyridin-2-yl)methyl)-N-(4-methoxyphenyl)-4-(oxetan-3-yl)piperazine-1-carboxamide], the “HDAC6 selectivity (fold)” value was found to be 62 fold and the IC50 is 160 nM.
For `O=C(N1CCN(C2COC2)CC1)N(Cc1ccc(-c2nnc(C(F)F)o2)cc1F)c1ccccc1` [Compound 21955, N-(4-(5-(Difluoromethyl)-1,3,4-oxadiazol-2-yl)-2-fluorobenzyl)-4-(oxetan-3-yl)-N-phenylpiperazine-1-carboxamide], in that order: 113 fold and 89 nM.
For `O=C(NCCN1CCCC1)N(Cc1ccc(-c2nnc(C(F)F)o2)cc1F)c1ccccc1` [Compound 21956, 1-(4-(5-(Difluoromethyl)-1,3,4-oxadiazol-2-yl)-2-fluorobenzyl)-1-phenyl-3-(2-(pyrrolidin-1-yl)ethyl)urea], in that order: 60 fold and 167 nM.
In the same order, the values of `O=C(NCCN1CCCCC1)N(Cc1ccc(-c2nnc(C(F)F)o2)cc1F)c1ccccc1` [Compound 21957, 1-(4-(5-(Difluoromethyl)-1,3,4-oxadiazol-2-yl)-2-fluorobenzyl)-1-phenyl-3-(2-(piperidin-1-yl)ethyl)urea] are 116 fold and 86 nM.
As to `CN1CCN(CCNC(=O)N(Cc2ccc(-c3nnc(C(F)F)o3)cc2F)c2ccccc2)CC1` [Compound 21958, 1-(4-(5-(Difluoromethyl)-1,3,4-oxadiazol-2-yl)-2-fluorobenzyl)-3-(2-(4-methylpiperazin-1-yl)ethyl)-1-phenylurea], the “HDAC6 selectivity (fold)” value came out at 115 fold and the IC50 was 87 nM.
For `CN1CCC(c2ccc(N(Cc3ccc(-c4nnc(C(F)F)o4)cc3F)C(=O)N3CCS(=O)(=O)CC3)cc2)CC1` [Compound 21970, N-(4-(5-(difluoromethyl)-1,3,4-oxadiazol-2-yl)-2-fluorobenzyl)-N-(4-(1-methylpiperidin-4-yl)phenyl)thiomorpholine-4-carboxamide 1,1-dioxide], in that order: 6 fold and 1550 nM.
In the same order, the values of `CCN1CCN(CCOc2ccc(N(Cc3ccc(-c4nnc(C(F)F)o4)cc3F)C(=O)N3CCS(=O)(=O)CC3)cc2)CC1` [Compound 21971, N-(4-(5-(difluoromethyl)-1,3,4-oxadiazol-2-yl)-2-fluorobenzyl)-N-(4-(2-(4-ethylpiperazin-1-yl)ethoxy)phenyl)thiomorpholine-4-carboxamide 1,1-dioxide] are 59 fold and 169 nM.
For `CCN1CCN(CCCOc2ccc(N(Cc3ccc(-c4nnc(C(F)F)o4)cc3F)C(=O)N3CCS(=O)(=O)CC3)cc2)CC1` [Compound 21972, N-(4-(5-(difluoromethyl)-1,3,4-oxadiazol-2-yl)-2-fluorobenzyl)-N-(4-(3-(4-ethylpiperazin-1-yl)propoxy)phenyl)thiomorpholine-4-carboxamide 1,1-dioxide], in that order: 38 fold and 266 nM.
In the case of `CCN1CCN(CCCCOc2ccc(N(Cc3ccc(-c4nnc(C(F)F)o4)cc3F)C(=O)N3CCS(=O)(=O)CC3)cc2)CC1` [Compound 21973, N-(4-(5-(difluoromethyl)-1,3,4-oxadiazol-2-yl)-2-fluorobenzyl)-N-(4-(4-(4-ethylpiperazin-1-yl)butoxy)phenyl)thiomorpholine-4-carboxamide 1,1-dioxide], the “HDAC6 selectivity (fold)” value is 39 fold and the IC50 came out at 256 nM.
In the same order, the values of `Cc1nnc(N(Cc2ccc(-c3nnc(C(F)F)o3)cc2F)C(=O)N2CCS(=O)(=O)CC2)s1` [Compound 21979, N-(4-(5-(difluoromethyl)-1,3,4-oxadiazol-2-yl)-2-fluorobenzyl)-N-(5-methyl-1,3,4-thiadiazol-2-yl)thiomorpholine-4-carboxamide 1,1-dioxide] are 15 fold and 669 nM.
In the same order, the values of `Cc1nnc(N(Cc2ccc(-c3nnc(C(F)F)o3)cc2F)C(=O)N2CCOCC2)s1` [Compound 21980, N-(4-(5-(difluoromethyl)-1,3,4-oxadiazol-2-yl)-2-fluorobenzyl)-N-(5-methyl-1,3,4-thiadiazol-2-yl)morpholine-4-carboxamide] are 10 fold and 1030 nM.
For the compound `O=C(N1CCOCC1)N(Cc1ccc(-c2nnc(C(F)F)o2)cc1F)c1nncs1` [Compound 21981, N-(4-(5-(difluoromethyl)-1,3,4-oxadiazol-2-yl)-2-fluorobenzyl)-N-(1,3,4-thiadiazol-2-yl) morpholine-4-carboxamide], the “HDAC6 selectivity (fold)” value was 13 fold and the IC50 amounted to 758 nM.
In the same order, the values of `O=C(NCCN1CCOCC1)N(Cc1ccc(-c2nnc(C(F)F)o2)cc1F)c1ccccc1` [Compound 21982, 1-(4-(5-(Difluoromethyl)-1,3,4-oxadiazol-2-yl)-2-fluorobenzyl)-3-(2-morpholinoethyl)-1-phenylurea] are 96 fold and 104 nM.
For `O=C(NCCN1CC(F)(F)C1)N(Cc1ccc(-c2nnc(C(F)F)o2)cc1F)c1ccccc1` [Compound 21983, 3-(2-(3,3-Difluoroazetidin-1-yl)ethyl)-1-(4-(5-(difluoromethyl)-1,3,4-oxadiazol-2-yl)-2-fluorobenzyl)-1-phenylurea], in that order: 63 fold and 160 nM.
Regarding `O=C(CN1CCN(CCNC(=O)N(Cc2ccc(-c3nnc(C(F)F)o3)cc2F)c2ccccc2)CC1)N1CCOCC1` [Compound 21984, 1-(4-(5-(Difluoromethyl)-1,3,4-oxadiazol-2-yl)-2-fluorobenzyl)-3-(2-(4-(2-morpholino-2-oxoethyl)piperazin-1-yl)ethyl)-1-phenylurea], the “HDAC6 selectivity (fold)” value was 107 fold and the IC50 was determined as 93 nM.
As for `O=C(NCCN1CCCOCC1)N(Cc1ccc(-c2nnc(C(F)F)o2)cc1F)c1ccccc1` [Compound 21986, 3-(2-(1,4-Oxazepan-4-yl)ethyl)-1-(4-(5-(difluoromethyl)-1,3,4-oxadiazol-2-yl)-2-fluorobenzyl)-1-phenylurea], the “HDAC6 selectivity (fold)” value is reported as 207 fold and the IC50 turned out to be 48 nM.
On to `O=C(NCCN1CCC[C@@H]1C(F)(F)F)N(Cc1ccc(-c2nnc(C(F)F)o2)cc1F)c1ccccc1` [Compound 21987, (R)-1-(4-(5-(difluoromethyl)-1,3,4-oxadiazol-2-yl)-2-fluorobenzyl)-1-phenyl-3-(2-(2-(trifluoromethyl)pyrrolidin-1-yl)ethyl)urea], for which the “HDAC6 selectivity (fold)” value came out at 47 fold and the IC50 is 213 nM.
